Laboratory results reported in PMC9367663 (Journal of Enzyme Inhibition and Medicinal Chemistry, 2022).
Entries after “also recorded” stand apart in the source; their conditions may differ. Where two headings read alike, the source gives them in different places.

How the values were obtained:
SARS-CoV-2 PL^Pro = SARS-CoV-2 PL^Pro (Severe acute respiratory syndrome coronavirus 2, UniProt P0DTD1); assay: biochemical; format: biochemical
cathepsin L = cathepsin L (Homo sapiens, UniProt P07711); assay: biochemical; format: biochemical
[1] = tested on: human lung tissue (HLT) cells
SARS-CoV-2 viral isolate = format: cell-based; conditions: 30 µM
[2] = UV–vis stability in biologically relevant media; format: physicochemical; conditions: 50 mM acetate buffer pH 5.5 (1% DMSO for a and 1a), 0 and 30 min
Experimental: The same buffers as for enzymatic assays were used for UV–vis stability testing (50 mM acetate buffer, pH = 5.5, and 50 mM HEPES buffer, pH = 7.4). Pyrithione a and zinc pyrithione 1a were dissolved in DMSO. Mixtures of a dissolved compound in DMSO (1%) and buffer (99%) were filtered through Minisart® Regenerated Cellulose Syringe Filter (25 mm, 0.2 µm). Ruthenium complex 2a was dissolved directly in buffers. After preparation, the spectra were immediately recorded on UV–vis spectrometer with an additional recording after 30 min.

[3] = 1H NMR stability in biologically relevant media; format: physicochemical; conditions: buffers in D2O (1% DMSO-d6 for a and 1a), t = 0 and 30 min
Experimental: Acetate and HEPES buffers were prepared in D2O. […] Such solutions were further filtered through Minisart® Regenerated Cellulose Syringe Filter (25 mm, 0.2 µm).

in vitro = conditions: human
[4] = pH 5.5, read-out: IC50 cathepsin L
[5] = 100 µM ligand, averages of three measurements

cathepsin L, sequence (P07711 114-333): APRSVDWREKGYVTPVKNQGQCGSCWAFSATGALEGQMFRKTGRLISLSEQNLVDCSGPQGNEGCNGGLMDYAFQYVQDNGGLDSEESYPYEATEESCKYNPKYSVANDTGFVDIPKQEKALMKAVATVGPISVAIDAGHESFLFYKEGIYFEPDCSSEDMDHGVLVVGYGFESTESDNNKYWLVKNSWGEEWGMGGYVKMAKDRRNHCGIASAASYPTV

Q: Which results are given for Zn-(6Me-pth) complex [1e]?
A: IC50 (SARS-CoV-2 PL^Pro; pH 7.4, read-out: IC50 PL^Pro): 260 ± 180 nM; IC50 (cathepsin L; [4]): 240 ± 50 nM

Q: For Zn-(4Me-pth) complex [1c], which IC50 (SARS-CoV-2 PL^Pro; pH 7.4, read-out: IC50 PL^Pro) is on record?
A: Its IC50 is 540 ± 250 nM.

Q: And the IC50 (cathepsin L; [4])?
A: The IC50 was 410 ± 80 nM.

Q: For “Zn-(N-hydroxyisoquinoline-1-thione) complex [1f]”, which “extent of PL^Pro inhibition (in words)” value (SARS-CoV-2 PL^Pro) is on record?
A: The value was “cannot fully inhibit the enzyme”.

Q: And the IC50 (cathepsin L; 50 mM acetate buffer pH 5.5, 2 µM Z-LR-AMC, 5 µM DTT, 25 °C, mean ± S.E.M. (N = 3), read-out: IC50 cathepsin L)?
A: Its IC50 is 140 ± 50 nM.

Q: For `Cc1ccn(O)c(=S)c1` [c], which “vi/v0 at 100 µM, PLPro (relative reaction rate)” value (SARS-CoV-2 PL^Pro; [5]) is on record?
A: The value was 0.60.

Q: What about the “vi/v0 at 100 µM, Cathepsin L (relative reaction rate)” value (cathepsin L; [5]) of the same molecule?
A: Its value is 1.04.

Q: Which results are given for `On1ccc2ccccc2c1=S` [f, N-hydroxyisoquinoline-1-thione]?
A: vi/v0 at 100 µM, PLPro (relative reaction rate) (SARS-CoV-2 PL^Pro; [5]): 0.66; vi/v0 at 100 µM, Cathepsin L (relative reaction rate) (cathepsin L; [5]): 0.65

Q: Which results are given for `COc1cccn(O)c1=S` [h]?
A: vi/v0 at 100 µM, PLPro (relative reaction rate) (SARS-CoV-2 PL^Pro; [5]): 0.60; vi/v0 at 100 µM, Cathepsin L (relative reaction rate) (cathepsin L; [5]): 1.17

Q: Which results are given for Zn-(5Me-pth) complex [1d]?
A: IC50 (SARS-CoV-2 PL^Pro; pH 7.4, read-out: IC50 PL^Pro): 220 ± 80 nM; IC50 (cathepsin L; [4]): 440 ± 120 nM

Q: For `Cc1cccc(=S)n1O` [e], which “vi/v0 at 100 µM, PLPro (relative reaction rate)” value (SARS-CoV-2 PL^Pro) is on record?
A: Its value is 0.82.

Q: And the “vi/v0 at 100 µM, Cathepsin L (relative reaction rate)” value (cathepsin L; [5])?
A: The value was 1.15.

Q: With `On1c(=S)ccc2ccccc21` [g] as the molecule, how does the “vi/v0 at 100 µM, PLPro (relative reaction rate)” value (SARS-CoV-2 PL^Pro; [5]) read?
A: Its value is 0.28.

Q: What about the “vi/v0 at 100 µM, Cathepsin L (relative reaction rate)” value (cathepsin L; [5]) of the same molecule?
A: Its value is 0.53.

Q: For `Cc1ccc(=S)n(O)c1` [d], which “vi/v0 at 100 µM, PLPro (relative reaction rate)” value (SARS-CoV-2 PL^Pro) is on record?
A: The value was 0.77.

Q: What about the “vi/v0 at 100 µM, Cathepsin L (relative reaction rate)” value (cathepsin L; [5]) of the same molecule?
A: Its value is 1.01.

Q: Which “vi/v0 at 100 µM, PLPro (relative reaction rate)” value (SARS-CoV-2 PL^Pro) does the source give for `Cc1cccn(O)c1=S` [b] here?
A: The value was 0.50.

Q: What about the “vi/v0 at 100 µM, Cathepsin L (relative reaction rate)” value (cathepsin L; [5]) of the same molecule?
A: The value was 1.05.

Q: With `On1ccccc1=S` [a, 1-hydroxy-2(1H)-pyridinethione] as the molecule, how does the cell survival [1] read?
A: Its cell survival is 72.91%.

Q: What about the IC50 (SARS-CoV-2 PL^Pro) of the same molecule?
A: The IC50 was over 500000 nM.

Q: What about the “vi/v0 at 100 µM, PLPro (relative reaction rate)” value (SARS-CoV-2 PL^Pro) of the same molecule?
A: The value was 0.88.

Q: What about the “inhibition of SARS-CoV-2 replication” value (SARS-CoV-2 viral isolate) of the same molecule?
A: Its value is “no effect; also recorded: did not inhibit”.

Q: What about the IC50 (cathepsin L) of the same molecule?
A: The IC50 was over 500000 nM.

Q: And the “vi/v0 at 100 µM, Cathepsin L (relative reaction rate)” value (cathepsin L)?
A: The value was 1.09.

Q: What about the “UV–vis stability in acetate buffer” value [2] of the same molecule?
A: The value was “remain stable”.

Q: And the “1H NMR stability in acetate and HEPES buffers” value [3]?
A: Its value is “no structural changes”.

Q: And the CC50 (in vitro)?
A: The CC50 was over 100000 nM.

Q: What about the viability (in vitro) of the same molecule?
A: The viability was 51.9 to 55.5%.
